# Counter-ions that a name gives are not always drawn. Like-named read-outs stand apart in the source and are kept apart here.
# Assays:
# [1] = molecular target: Isdop2 (Ixodes scapularis, UniProt A0ACM8DGL0); test: cell-based; settings: for inhibition at 10 µM: read-out: % Inhibition (of response to dopamine), Isdop2 screen
# [2] = molecular target: T1, AaDOP2 (Aedes aegypti, UniProt H6D5H2); test: LOPAC1280 antagonist screen in HEK-CRELuc-Aadop2 cells; type: cell-based; settings: for % inhibition of DA activity (Aedes cell-based assay screen): LOPAC1280 screen hits
# T1 sequence (H6D5H2 entry or part of it): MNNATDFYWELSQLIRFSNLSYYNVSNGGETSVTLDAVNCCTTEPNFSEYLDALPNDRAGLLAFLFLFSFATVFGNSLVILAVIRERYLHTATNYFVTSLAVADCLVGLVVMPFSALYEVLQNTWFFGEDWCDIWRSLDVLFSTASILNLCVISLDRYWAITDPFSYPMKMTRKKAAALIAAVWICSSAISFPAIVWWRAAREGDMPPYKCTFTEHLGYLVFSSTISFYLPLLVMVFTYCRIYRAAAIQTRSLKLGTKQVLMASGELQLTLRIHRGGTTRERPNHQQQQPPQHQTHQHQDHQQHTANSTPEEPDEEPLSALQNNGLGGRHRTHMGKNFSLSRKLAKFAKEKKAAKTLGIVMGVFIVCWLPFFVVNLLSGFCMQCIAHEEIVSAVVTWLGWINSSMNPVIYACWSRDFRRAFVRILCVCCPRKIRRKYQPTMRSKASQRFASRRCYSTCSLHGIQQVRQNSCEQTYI
# [3] = molecular target: T1, AaDOP2; test: HTRF cAMP accumulation concentration response assay (Cisbio Dynamic 2); type: cell-based
# [4] = tested on: Ae. aegypti L3 larvae; test: whole plant or invertebrate; settings: Aedes aegypti
# [5] = 10 μM compound, 300 nM dopamine, quadruplicate
# [6] = in vitro Concentration Response Curve assay, n = 2, relative to control antagonist Amitriptyline, read-out: Avg IC50
# Sequence of Isdop2 (A0ACM8DGL0 entry or part of it): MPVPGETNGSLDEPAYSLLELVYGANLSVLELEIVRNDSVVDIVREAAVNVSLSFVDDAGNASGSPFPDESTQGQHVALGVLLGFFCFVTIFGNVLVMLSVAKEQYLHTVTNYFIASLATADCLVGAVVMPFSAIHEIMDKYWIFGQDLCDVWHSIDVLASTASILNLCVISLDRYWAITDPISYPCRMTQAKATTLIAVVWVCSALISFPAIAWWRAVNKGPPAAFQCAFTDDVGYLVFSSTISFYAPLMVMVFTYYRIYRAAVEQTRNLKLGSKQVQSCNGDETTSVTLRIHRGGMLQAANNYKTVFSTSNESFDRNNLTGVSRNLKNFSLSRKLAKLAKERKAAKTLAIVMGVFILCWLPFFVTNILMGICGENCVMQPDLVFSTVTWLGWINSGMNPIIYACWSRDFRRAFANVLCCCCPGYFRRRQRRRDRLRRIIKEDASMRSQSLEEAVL
smiles,measurement,setting,value
"CCC(=O)c1ccc2c(c1)N(CCCN(C)C)c1ccccc1S2 [Propionylpromazine, 1-[10-[3-(dimethylamino)propyl]phenothiazin-2-yl]propan-1-one]",inhibition at 10 µM,[1],94%
same,% of the SCH23390 effect,[2]; [5],85%
same,% inhibition of DA activity (Aedes cell-based assay screen),[2],85%
CC(C)[C@H](CO)Nc1nc(Nc2cccc(Cl)c2)c2ncn(C(C)C)c2n1 [Purvalanol A],"% Inhibition (of response to dopamine), Isdop2 screen",[1],84%
same,% of the SCH23390 effect,[2]; [5],93%
"Cc1nc2sccn2c(=O)c1CCN1CCC(=C(c2ccc(F)cc2)c2ccc(F)cc2)CC1 [Ritanserin, 6-[2-[4-[bis(4-fluorophenyl)methylidene]piperidin-1-yl]ethyl]-7-methyl-[1,3]thiazolo[2,3-b]pyrimidin-5-one]",inhibition at 10 µM,[1],77%
same,% of the SCH23390 effect,[2]; [5],83%
same,% inhibition of DA activity (Aedes cell-based assay screen),[2],83%
"CCOC(=O)c1c(C)n(-c2ccccc2)c2cc(Br)c(OC)cc12 [ST002262, ethyl 6-bromo-5-methoxy-2-methyl-1-phenylindole-3-carboxylate]",IC50,[3]; [6],4.86 µM
"CC(C)(O)C#Cc1ccc2c3c(cccc13)C(=O)OC2=O [ST010134, 6-(3-hydroxy-3-methyl-but-1-ynyl)-benzo(de)isochromene-1,3-dione]",IC50,[3]; [6],0.952 µM
"Cc1ccccc1Nc1nc(Nc2ccccc2C)c2ccccc2n1 [ST027415, (2-methylphenyl){2-[(2-methylphenyl)amino]quinazolin-4-yl}amine]",IC50,[3]; [6],8.86 µM
"CCC(CC)c1nc(Nc2ccc(C(=O)OC)cc2)c2ccccc2n1 [ST029812, methyl 4-{[2-(ethylpropyl)quinazolin-4-yl]amino}benzoate]",IC50,[3]; [6],8.93 µM
"CCC(CC)c1nc(Nc2ccc(C)c(Cl)c2)c2ccccc2n1 [ST029892, (3-chloro-4-methylphenyl)[2-(ethylpropyl)quinazolin-4-yl]amine]",IC50,[3]; [6],4.51 µM
"O=[N+]([O-])C1=Cc2ccccc2OC1c1ccc2c(c1)OCO2 (stereo not shown) [ST038696, 5-(3-nitro-2H-chromen-2-yl)-2H-benzo[d]1,3-dioxolane]",IC50,[3]; [6],5.51 µM
"N=C1SC(=Cc2cc3c(cc2Br)OCO3)C(=O)N1c1ccc(OC(F)(F)F)cc1 [ST052085, 5-[(6-bromo(2H-benzo[d]1,3-dioxolen-5-yl))methylene]-2-imino-3-[4-(trifluoromethoxy)phenyl]-1,3-thiazolidin-4-one]",IC50,[3]; [6],74.2 µM
"CC1CCC(C(C)C)C(OC(=O)C(=O)c2ccccc2)C1 (stereo not shown) [ST070482, 5-methyl-2-(methylethyl)cyclohexyl 2-oxo-2-phenylacetate]",IC50,[3]; [6],32.4 µM
"CCOC(=O)C1=C(N)Oc2c(oc(CO)cc2=O)C1c1cc([N+](=O)[O-])ccc1Cl (stereo not shown) [ST071653, ethyl 2-amino-4-(2-chloro-5-nitrophenyl)-6-(hydroxymethyl)-8-oxo-4H-pyrano[3,2-b]pyran-3-carboxylate]",IC50,[3]; [6],1.65 µM
"COc1ccc(C(=O)Nc2nc(-c3ccc4c(c3)OCCO4)cs2)cc1OC [ST075014, N-(4-(2H,3H-benzo[3,4-e]1,4-dioxin-6-yl)(1,3-thiazol-2-yl))(3,4-dimethoxyphenyl)carboxamide]",IC50,[3]; [6],8.31 µM
"COc1ccc2[nH]cc(CCNC(=O)C(=O)c3c(-c4ccccc4)n(C)c4ccccc34)c2c1 [ST077642, N-[2-(5-methoxyindol-3-yl)ethyl]-2-(1-methyl-2-phenylindol-3-yl)-2-oxoacetamide]",IC50,[3]; [6],17.6 µM
"CN1CCc2c(c3ccccc3n2Cc2ccccc2)C1 [ST088437, 2-methyl-5-benzyl-1,2,3,4-tetrahydropyridino[4,3-b]indole]",IC50,[3]; [6],1.97 µM
"CC(=O)c1ccc2c(c1)OCO2 [ST092311, 5-acetyl-2H-benzo[d]1,3-dioxolene]",IC50,[3],5.82 µM
"c1ccc(CCNc2nc(N3CCNCC3)nc3ccccc23)cc1 [ST095663, (phenylethyl)(2-piperazinylquinazolin-4-yl)amine]",IC50,[3]; [6],4.84 µM
"CN1CCN(CC/C=C2/c3ccccc3Sc3ccc(S(=O)(=O)N(C)C)cc32)CC1 [Thiothixene, (9Z)-N,N-dimethyl-9-[3-(4-methylpiperazin-1-yl)propylidene]-9H-thioxanthene-2-sulfonamide]",inhibition at 10 µM,[1],87%
same,% of the SCH23390 effect,[2],86%
same,% inhibition of DA activity (Aedes cell-based assay screen),[2],86%
"CN(C)CCOc1ccc(/C(=C(/CCCl)c2ccccc2)c2ccccc2)cc1 [Toremifene citrate salt, (Z)-2-(4-(4-Chloro-1,2-diphenyl-1-butenyl)phenoxy)-N,N-dimethylethanamine]",IC50,[3],44.9 µM
COc1ccc(C(CN(C)C)C2(O)CCCCC2)cc1 (stereo not shown) [Venlafaxine],"IC50 ± S.E.M. (nM), HTRF cAMP assay","[3]; AaDOP2 expressing cells in the presence of dopamine, No Inhibition = <10% inhibition at 3 μM test compound",No Inhibition^a
same,mortality at 400 µM,"[4]; 24 h, read-out: Toxicity to Aedes aegypti larvae (mortality) 24 hours, 400 μM, L3 larvae, three independent experiments",3%
same,mortality at 400 µM,"[4]; 48 h, read-out: Toxicity to Aedes aegypti larvae (mortality) 48 hours, 400 μM, L3 larvae, three independent experiments",7%
same,mortality at 400 µM,"[4]; 72 h, read-out: Toxicity to Aedes aegypti larvae (mortality) 72 hours, 400 μM, L3 larvae, three independent experiments",13%
CC1(C)CCC2=C(O1)c1ccccc1C(=O)C2=O [beta-Lapachone],% of the SCH23390 effect,[2]; [5],86%
